Reference: the supplement of paper PMC8372320

Assay: photocatalytic hydrogen evolution rate (per 5 mg catalyst); higher = more photocatalytic H2 evolution; extreme values may be limits of the assay
Conditions: catalyst mass (mg): 5; Pt cocatalyst (wt%): 3; sacrificial medium: triethylamine/methanol/water 1:1:1
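Further: aromatic molecules in triethylamine/methanol/water with Pt photoreduced in situ, irradiated 3 h under a 1 sun AM 1.5G solar simulator (350–1000 nm), H2 quantified by headspace gas chromatography; listed molecule itself used as the photocatalyst at 5 mg per vial.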

| photocatalytic hydrogen evolution rate | SMILES |
| --- | --- |
| 0 µmol/h | CCc1cc(C#N)ccc1C#N |
| 0 µmol/h | O=c1cc(Br)[nH]c(Br)c1 |
| 0.721 µmol/h | N#Cc1cnc(Br)cn1 |
| 4.66 µmol/h | N#Cc1ccc(C(=O)c2ccc(C#N)cc2)cc1 |
| 0 µmol/h | Fc1c(F)c(-c2c(F)c(F)c(Br)c(F)c2F)c(F)c(F)c1Br |
| 3.11 µmol/h | O=Cc1ccc2ncccc2c1 |
| 0 µmol/h | N#Cc1ccccc1-c1ccccc1C#N |
| 0 µmol/h | Cc1cc(Br)c(C)cc1Br |
| 0 µmol/h | N#Cc1ccc(F)cc1 |
| 0 µmol/h | c1ncncn1 |
| 0 µmol/h | Brc1ccc2c(c1)oc1cc(Br)ccc12 |
| 0 µmol/h | NNC(=O)c1cc(Br)c(O)c(Br)c1 |
| 0 µmol/h | N#Cc1cccnc1Br |
| 0 µmol/h | CCCCCCCCC1(CCCCCCCC)c2cc(Br)ccc2-c2ccc(Br)cc21 |
| 0 µmol/h | COc1ccc(N2C(=O)c3ccc4c5ccc6c7c(ccc(c8ccc(c3c48)C2=O)c75)C(=O)N(c2ccc(OC)cc2)C6=O)cc1 |
| 0 µmol/h | Brc1ccc2c(c1)sc1cc(Br)ccc12 |
| 0.017 µmol/h | O=Cc1ccc(/C=C/c2ccccc2)cc1 |
| 0.407 µmol/h | O=C1c2ccccc2-c2ccc3c4ccc5c6c(ccc(c7ccc1c2c73)c64)C(=O)c1ccccc1-5 |
| 0 µmol/h | C#Cc1cc(C#C)cc(C#C)c1 |
| 0 µmol/h | O=Cc1ccc(O)c(O)c1 |
| 0.101 µmol/h | OC1(c2ccccc2)c2cc(Br)ccc2-c2ccc(Br)cc21 |
| 0 µmol/h | C(C#Cc1ccccc1)#Cc1ccccc1 |
| 0 µmol/h | N#Cc1ccc(-c2ccccc2)cc1 |
| 0.0889 µmol/h | N#Cc1cncc(C=O)c1 |
| 0.0847 µmol/h | CC1(C)OB(c2cc3ccc4cc(B5OC(C)(C)C(C)(C)O5)cc5ccc(c2)c3c45)OC1(C)C |
| 0.411 µmol/h | N#Cc1ccc(/C=C/c2ccc(/C=C/c3ccc(C#N)cc3)cc2)cc1 |

| photocatalytic hydrogen evolution rate | SMILES |
| --- | --- |
| 2.56 µmol/h | O=C(O)c1ccc(-c2c3nc(c(-c4ccc(C(=O)O)cc4)c4ccc([nH]4)c(-c4ccc(C(=O)O)cc4)c4nc(c(-c5ccc(C(=O)O)cc5)c5ccc2[nH]5)C=C4)C=C3)cc1 |
| 0.104 µmol/h | N#Cc1ccc(C=O)cc1F |
| 0 µmol/h | Cc1ccc(N(c2ccccc2)c2ccccc2)cc1 |
| 2.69 µmol/h | O=C1c2ccc(O)cc2C(=O)c2ccc(O)cc21 |
| 0 µmol/h | N#Cc1nccnc1C#N |
| 0 µmol/h | CC1(C)OB(c2ccc3c(c2)[nH]c2ccccc23)OC1(C)C |
| 0.0408 µmol/h | c1ccc2c(c1)C1c3ccccc3C2c2ccccc21 |
| 0.0145 µmol/h | O=Cc1ccc(C=O)cc1 |
| 10.5 µmol/h | O=Cc1cc(Br)ccc1O |
| 0.0654 µmol/h | N#Cc1ccc(C#N)c2ccccc12 |
| 0 µmol/h | N#CCc1ccc(B(O)O)cc1 |
| 0.0393 µmol/h | O=C(O)Cc1ccc(-c2ccccc2)cc1 |
| 0 µmol/h | COc1ccc(OC)cc1 |
| 28.3 µmol/h | O=C1OC2(c3ccccc31)c1cc(I)c(O)c(I)c1Oc1c2cc(I)c(O)c1I |
| 8.13 µmol/h | N#Cc1c(F)c(F)c(C#N)c(F)c1F |
| 0.0401 µmol/h | O=Cc1ccc(B(O)O)cc1 |
| 0 µmol/h | O=C(O)c1ccc(C#Cc2cc(C#Cc3ccc(C(=O)O)cc3)cc(C#Cc3ccc(C(=O)O)cc3)c2)cc1 |
| 0.844 µmol/h | Cc1c(C)c(C)c(C=O)c(C)c1C |
| 0 µmol/h | Oc1c(F)c(F)c(O)c(F)c1F |
| 0.31 µmol/h | N#Cc1cc(Br)cc(Br)c1O |
| 3.29 µmol/h | O=Cc1ccc(-c2ccncc2)cc1 |
| 0 µmol/h | N#Cc1ccc(-c2cccc(N)c2)cc1 |
| 0 µmol/h | Brc1ccc(-c2ccc(-c3ccc(Br)s3)s2)s1 |
| 0 µmol/h | Fc1c(F)c(Br)c(F)c(F)c1Br |
| 0 µmol/h | COC(=O)c1ccnc(-c2cc(C(=O)OC)ccn2)c1 |
| 0 µmol/h | Cc1[nH]c(C)c(C=O)c1C=O |

The remaining lines, values behind:

| SMILES | photocatalytic hydrogen evolution rate |
| --- | --- |
| Brc1cnc(Br)nc1 | 0 µmol/h |
| OB(O)c1cc(F)c(B(O)O)cc1F | 0 µmol/h |
| O=Cc1ccc(N2CCCC2)cc1 | 0.173 µmol/h |
| Oc1ccc(I)cc1 | 0 µmol/h |
| CCOC(=O)c1cc(C(=O)OCC)cc(C(=O)OCC)c1 | 0.0434 µmol/h |
| Cc1ncc[nH]1 | 0 µmol/h |
| COc1cc(Br)cc(OC)c1 | 0.0348 µmol/h |
| Cc1cc(C)c(Nc2ccc(Nc3c(C)cc(C)cc3C)c3c2C(=O)c2ccccc2C3=O)c(C)c1 | 0.331 µmol/h |
| N#Cc1ccc(-c2ccc(C#N)cn2)nc1 | 0 µmol/h |
| COc1cc(C=O)c(OC)cc1C=O | 1.37 µmol/h |
| Cc1cc(C#N)ncc1Br | 0 µmol/h |
| COC(=O)c1cccc2cc3cccc(C(=O)OC)c3cc12 | 0.0378 µmol/h |
| N#Cc1cc(F)cc(F)c1 | 0 µmol/h |
| CCc1cc(C)cc(CC)c1Nc1ccc(Nc2c(CC)cc(C)cc2CC)c2c1C(=O)c1ccccc1C2=O | 0 µmol/h |
| COC(=O)c1ccc2cc(Br)ccc2c1 | 0 µmol/h |
| BrCc1ccc(-c2ccc(CBr)cc2)cc1 | 0 µmol/h |
| O=Cc1ccc(-c2cccnc2)cc1 | 3.58 µmol/h |
| Cn1c2ccccc2c2cc(C=O)ccc21 | 2.49 µmol/h |
| Cc1cc(Br)cc(Br)c1 | 0 µmol/h |
| Cc1ccc(N)cc1C#N | 0 µmol/h |
| Fc1cc(Br)c2nsnc2c1Br | 0.241 µmol/h |
| c1csc(-c2ccc(-c3cccs3)c3nsnc23)c1 | 0.84 µmol/h |
| O=C(O)c1ccccc1[N+](=O)[O-] | 0 µmol/h |
| CC1(C)CC2(CC(C)(C)c3cc(O)c(O)cc32)c2cc(O)c(O)cc21 | 0 µmol/h |
| c1ccc2nc3ccccc3nc2c1 | 0 µmol/h |

| SMILES | photocatalytic hydrogen evolution rate |
| --- | --- |
| O=C1CCC(c2ccccc2)CC1 | 0 µmol/h |
| Oc1c(Br)cc(Br)c(O)c1Br | 0 µmol/h |
| O=C1C=CC(=O)c2c(O)cccc21 | 0 µmol/h |
| NC(c1ccccc1)(c1ccccc1)c1ccccc1 | 0 µmol/h |
| O=Cc1ccc2c(c1)c1ccccc1n2-c1ccccc1 | 2.51 µmol/h |
| O=Cc1ccc(Cl)c(O)c1 | 0 µmol/h |
| Cc1c2ccccc2c(C)c2ccccc12 | 0.68 µmol/h |
| CC1(C)OB(c2ccc(N)cc2)OC1(C)C | 0.0761 µmol/h |
| c1ccc(N=Nc2ccccc2)cc1 | 0 µmol/h |
| N#Cc1ccccc1CBr | 0 µmol/h |
| COc1cc(C#N)c(C#N)cc1OC | 0 µmol/h |
| Brc1ccc(Br)c2ccccc12 | 0 µmol/h |
| O=C(c1ccccc1)c1ccccc1 | 3.25 µmol/h |
| COc1ccnc(-c2cc(OC)ccn2)c1 | 0.169 µmol/h |
| O=C1C(Cl)=C(Cl)C(=O)C(Cl)=C1Cl | 0 µmol/h |
| c1ccc2c(c1)cc1ccc3cccc4ccc2c1c34 | 0.00851 µmol/h |
| O=C(O)c1cc(Br)ccc1Br | 0 µmol/h |
| O=Cc1ncc[nH]1 | 0.469 µmol/h |
| O=Cc1ccc(N(c2ccc(C=O)cc2)c2ccc(C=O)cc2)cc1 | 1.46 µmol/h |
| Nc1cc(Br)c(F)cc1Br | 0 µmol/h |
| c1ccc(-c2ccccn2)nc1 | 0 µmol/h |
| Brc1ccc2c(c1)C1(c3cc(Br)ccc3-2)c2cc(Br)ccc2-c2ccc(Br)cc21 | 0.0511 µmol/h |
| N#Cc1cc(C#N)cc(C#N)c1 | 0.00175 µmol/h |
| O=Cc1cc(C=O)cc(C=O)c1 | 0.0923 µmol/h |
| CC1(C)OB(c2cn[nH]c2)OC1(C)C | 0 µmol/h |

| SMILES | photocatalytic hydrogen evolution rate |
| --- | --- |
| OB(O)c1cc(Br)cc(Br)c1 | 0 µmol/h |
| Cc1cc(C#N)ccc1C#N | 0 µmol/h |
| Nc1ccc(Br)cc1Br | 0 µmol/h |
| O=C(C(=O)c1ccc(C(=O)C(=O)c2ccccc2)cc1)c1ccccc1 | 0.00597 µmol/h |
| N#CCc1nc2ccccc2s1 | 0 µmol/h |
| O=Cc1cc(F)c(O)c(F)c1 | 0.191 µmol/h |
| O=Cc1sc(Br)nc1Br | 0 µmol/h |
| O=C(O)c1c(C(=O)O)c(C(=O)O)c(C(=O)O)c(C(=O)O)c1C(=O)O | 0 µmol/h |
| Cc1cc(N)ccc1C#N | 0 µmol/h |
| c1ccc2c(c1)Nc1ccccc1O2 | 0 µmol/h |
| Nc1nnc(Br)cc1Br | 0.0148 µmol/h |
| Brc1cc2ccc3cc(Br)cc4ccc(c1)c2c34 | 0 µmol/h |
| N#Cc1c(F)c(F)c(F)c(C#N)c1F | 0.386 µmol/h |
| c1ccc2c(c1)Cc1ccccc1-2 | 0 µmol/h |
| O=C(O)c1c(F)c(F)c(C(=O)O)c(F)c1F | 0 µmol/h |
| Cc1cc(C)cc(-c2cc(C)cc(C)c2)c1 | 0 µmol/h |
| c1ccc(C(c2ccccc2)(c2ccccc2)c2ccccc2)cc1 | 0 µmol/h |
| N#CCc1ccccc1CC#N | 0 µmol/h |
| Brc1c2ccccc2c(Br)c2ccccc12 | 0.0125 µmol/h |
| O=C(c1ccccc1)c1cc(C(=O)c2ccccc2)cc(C(=O)c2ccccc2)c1 | 14.2 µmol/h |
| c1ccc(-c2ccccc2)cc1 | 0 µmol/h |
| N#Cc1ccc2ccc(C#N)cc2c1 | 0.0489 µmol/h |
| O=C1NC(=O)c2ccc3c4ccc5c6c(ccc(c7ccc1c2c73)c64)C(=O)NC5=O | 0 µmol/h |
